Data taken from EP4729516A1, “S[…] DERIVATIVE, INTERMEDIATE, PREPARATION METHOD THEREFOR AND USE THEREOF” (Jiangsu NHWA Pharmaceutical Co., Ltd, priority 2023, dated 2024).
Where two headings read alike, the source gives them in different places.

Columns and labels:
α2A adrenoceptor = biological target: T1, α2A adrenoceptor (Homo sapiens, UniProt P08913); experiment: Agonist screening mode cAMP assay, 293-α2A cells; type: cell-based; conditions: for agonistic activity on the α2A receptor / agonistic activity α1A/2A: in words, compared with dexmedetomidine hydrochloride; for Function α1A/2A: ratio of α1A to α2A EC50
T1 construct: host or cells: 293
T1 sequence (P08913 1-465): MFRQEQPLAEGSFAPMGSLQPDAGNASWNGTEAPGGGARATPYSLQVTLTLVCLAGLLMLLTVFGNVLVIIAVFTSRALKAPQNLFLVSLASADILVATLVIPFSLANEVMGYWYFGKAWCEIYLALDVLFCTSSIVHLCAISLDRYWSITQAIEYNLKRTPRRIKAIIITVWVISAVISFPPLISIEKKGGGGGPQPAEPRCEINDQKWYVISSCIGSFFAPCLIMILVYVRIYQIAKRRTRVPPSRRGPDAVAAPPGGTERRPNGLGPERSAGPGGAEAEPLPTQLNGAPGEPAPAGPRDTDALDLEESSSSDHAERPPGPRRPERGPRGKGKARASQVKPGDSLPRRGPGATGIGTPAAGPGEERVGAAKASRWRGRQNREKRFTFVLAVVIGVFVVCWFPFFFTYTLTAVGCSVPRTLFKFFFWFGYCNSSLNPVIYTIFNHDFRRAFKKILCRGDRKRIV
Method: The cells were centrifuged at 1000 rpm for 5 min, and the supernatant was discarded. 3 mL of PBS was added, and the mixture was gently pipetted to be mixed well. The cells were centrifuged again at 1000 rpm for 5 min, and the supernatant was discarded. The cells were resuspended in the 1× Stimulation buffer and counted using a Countstar cell counter, and the cell density was adjusted to 4 × 10^5 cells/mL for later use. • (4) Cell addition: The cell suspension was added to assay plates at 5 µL/well (i.e., about 2000 cells/well). • (5) Compound addition: The compound diluted with the Stimulation buffer was added to the assay plates described above at 4 µL/well. • (6) Reaction and incubation: After gentle shaking, the assay plates were incubated at 37 °C for 20 min. • (7) Agonist Forskolin addition: A 10× adenylate cyclase agonist (Forskolin with a final concentration of 1 µM) solution was added at 1 µL/well. • (8) Reaction and incubation: After gentle shaking, the assay plates were incubated at 37 °C for 45 min. • (9) Detection reagent addition: cAMP-cryptate and Anti-cAMP-d2 were separately diluted according to a ratio of 1:20 with Lysis & detection buffer in the Cisbio cAMP-Gi detection kit, and the diluted cAMP-cryptate and Anti-cAMP-d2 described above were separately added to the assay plate at 5 µL/well. After shaking, the assay plates were left to stand at room temperature for 60 min. • (10) Experimental readings: The plate was read on Envision, readings from the 665 nm and 615 nm channels were taken, and the ratio of 665 nm/615 nm readings was calculated.

α2A receptor = biological target: T2, α2A receptor (Homo sapiens, UniProt P08913); experiment: Competitive receptor binding assay, α2A (3H-RX821002, CHO-K1-α2A membranes); conditions: for affinity for the α2A receptor / affinity α1A/2A: in words, compared with dexmedetomidine hydrochloride
T2 construct: expressed in transfected cells; host or cells: CHO-K1
T2 sequence (P08913 1-465): T1 sequence (P08913 1-465)
Method: Standard buffer (used for preparing α1A, α2A, α2B, and α2C receptor membranes): 146 mg of EDTA was weighed out, a 50 mM Tris-HCl buffer was added to reach a total volume of 1000 mL, and the pH was adjusted to 7.7 to make a final concentration of 0.5 mM for EDTA.
Test sample (compound): The theoretical sample weighing amount was calculated according to the designed concentration and the required volume. Generally, the test sample was dissolved in DMSO to an initial preparation dose of 5.0 × 10^-3 M, and the solution was sequentially diluted with DMSO to 5.0 × 10^-4 M-5.0 × 10^-9 M; the diluted DMSO solution was diluted with Buffer to a working concentration of 5.0 × 10^-5 M-5.0 × 10^-11 M; and the final concentration of DMSO in the working solution was 1% (the final concentration of DMSO in the reaction system was 0.2%). The test sample was prepared and then stored at 4 °C. After the test was completed, the test sample was discarded.
CHO-K1-α1A, CHO-K1-α2A, CHO-K1-α2B, and CHO-K1-α2C cells were taken out of a refrigerator at -80 °C, thawed naturally, and centrifuged at 2000 g at 4 °C for 10 min. The supernatant was discarded, and the pellet was collected. A buffer was added to the pellet, and the mixture was homogenized for 20-30 s and then centrifuged at 48000 g at 4 °C for 25 min. The supernatant was discarded, and the buffer was added again. The mixture was homogenized for 20-30 s and centrifuged at 48000 g at 4 °C for 25 min. The supernatant was discarded, and the pellet was collected and stored at -80 °C.
Table 1. Experimental conditions for radioactive binding
Step 1: 50 µL of a vehicle (1% DMSO) was added to a total binding tube (TB), 50 µL of a non-labeled substance (with a final concentration of 1.0 × 10^-5 M) was added to a non-specific binding tube (NB), and 50 µL of a test compound was added to each test compound tube (CB).
Step 2: 100 µL of a buffer was added to each reaction tube.
Step 3: The prepared membrane was suspended in a buffer to give a membrane suspension with a corresponding concentration for later use.
Step 4: 50 µL of the corresponding radioligand was added to each reaction tube.
Step 5: 50 µL of the membrane suspension was added to each reaction tube.
Step 6: Each reaction tube was incubated according to the incubation conditions. After the reaction was completed, the binding ligands were rapidly filtered under reduced pressure. The UniFilter GF/C plate was saturated with a 0.5% PEI solution 1 h in advance, fully washed with an ice-cold Tris-HCl buffer, filtered under vacuum, then placed into a thermostatic dryer, and dried for 30 min. The filter plate was taken out, and a MICROSCINT PS scintillation solution was added at 40 µL/well.
Step 7: The scintillation vial was put into a liquid scintillation counter for counting.
Based on the effect values of the compound samples at different concentration test points, the GraphPad Prism software was used to fit the action curves of the compound samples to the receptors, and the Ki values were calculated.

[1] = EC50, cAMP-Gi, 293-α2A cells, Forskolin 1 µM, read-out: Function α2A
[2] = Ki, CHO-K1-α2A membranes, 3H-RX821002, read-out: Binding α2A

SMILES | EC50 (α2A adrenoceptor; [1]) [nM] | agonistic activity on the α2A receptor (α2A adrenoceptor) | Function α1A/2A (α2A adrenoceptor) | Ki (α2A receptor; [2]) [nM] | affinity for the α2A receptor (α2A receptor) | agonistic activity α1A/2A (α2A adrenoceptor) | EC50 (α2A adrenoceptor) [nM] | Ki (α2A receptor) [nM] | affinity α1A/2A (α2A receptor)
c1cc2c(c(Cc3c[nH]cn3)c1)SCCC2 [Compound 1, 4-[1-(Thiochroman-8-yl)methyl]-1H-imidazole] | 1.28 | comparable | 2.5 | 15.6 | comparable |  |  |  | 
CC(c1c[nH]cn1)c1cccc2c1SCCC2 (centres unmarked) [Compound 2, 4-(1-[Thiochroman-8-yl)ethyl]-1H-imidazole] | 0.53 | superior | 10.1 | 7.72 | superior | comparable |  |  | 
CC(c1c[nH]cn1)c1cccc2c1CC2 (centres unmarked) [Compound 3, 4-(1-(Bicyclo[4.2.0]octa-1(6),2,4-trien-2-yl)ethyl)-1H-imidazole] |  | comparable | 18.3 |  | comparable | superior | 3.12 | 29.1 | comparable
CC(c1c[nH]cn1)c1cccc2c1CCCC2 (centres unmarked) [Compound 4, 4-(1-(5,6,7,8-Tetrahydronaphthalen-1-yl)ethyl)-1H-imidazole] |  | comparable | 7.0 |  | comparable | comparable | 3.57 | 28.7 | superior
CC(c1c[nH]cn1)c1cccc2c1C=CC2 (centres unmarked) [Compound 8, 4-[1-(1H-Inden-4-yl)ethyl]-1H-imidazole] |  | superior | 23.9 |  | comparable | superior | 0.91 | 10.8 | superior
CC(c1c[nH]cn1)c1cccc2c1OCC2 (centres unmarked) [Compound 10, 4-[1-(2,3-Dihydrobenzofuran-7-yl)ethyl]-1H-imidazole] |  | comparable | 5.2 |  | superior | comparable | 4.63 | 2.4 | superior
C[C@H](c1c[nH]cn1)c1cc(F)cc2c1C=CC2 [Compound 11-b, 4-[(1S)-1-(6-fluoro-1H-inden-4-yl)ethyl]-1H-imidazole] |  | comparable | 4.0 |  |  | comparable | 9.18 | 211 | 
CC(c1c[nH]cn1)c1cccc2c1C=CC2(C)C (centres unmarked) [Compound 17, 4-[1-(1,1-Dimethyl-1H-inden-4-yl)ethyl]-1H-imidazole] |  |  | 3.2 |  |  | comparable | 32 | 143 | 
C[C@H](c1c[nH]cn1)c1cccc2c1CCC2 [Compound 31-b, (S)-4-[1-(2,3-dihydro-1H-inden-4-yl)ethyl]-1H-imidazole] |  | comparable | 1.8 |  |  | comparable | 4.46 | 23.5 | 
CC1Cc2cccc(C(C)c3c[nH]cn3)c2O1 (centres unmarked) [Compound 32, 4-[1-(2-Methyl-2,3-dihydrobenzofuran-7-yl)ethyl]-1H-imidazole] |  |  | 0.0 |  |  |  | 353 | 4.94 | 
C[C@H](c1c[nH]cn1)c1cc(F)cc2c1C(=O)CC2 [Compound 38-b, (S)-7-(1-(1H-imidazol-4-yl)ethyl)-5-fluoro-2,3-dihydro-1H-inden-1-one] | 13.2 |  | 0.7 | 701 |  |  |  |  | 
